Laboratory results from US11912723B2, “KRAS modulators and uses thereof” (Quanta Therapeutics, Inc., priority 2022, dated 2024).

Legend:
[1] = biological target: T1, GST-tagged KRAS G12D (2-169) (Homo sapiens, UniProt P01116, G12D); assay: Nucleotide exchange assay (NEA), HTRF of SOS-mediated GTP-DY-647P1 binding; format: biochemical; settings: 5 nM GST-KRAS G12D, 20 nM SOScat, 150 nM GTP; compound 1 h at RT
T1 construct: GST-tagged KRAS^G12D (2-169, Reaction Biology, MSC-11-539); purchased Reaction Biology MSC-11-539 (KRAS G12D); MSC-11-502 (SOS1cat)
T1 sequence (P01116 2-169 isoform P01116-2 G12D): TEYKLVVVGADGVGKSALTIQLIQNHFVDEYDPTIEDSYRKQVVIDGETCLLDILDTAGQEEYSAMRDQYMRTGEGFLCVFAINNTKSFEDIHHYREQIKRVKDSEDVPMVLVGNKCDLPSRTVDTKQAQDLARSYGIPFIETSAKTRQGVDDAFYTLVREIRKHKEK
How it was run: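 After 1 h RT preincubation of compound with KRAS, SOS1cat (20 nM final) and fluorescent GTP analog (150 nM) were added to 5 nM KRAS; HTRF (anti-GST Tb donor) followed at RT for up to 90 min. % inhibition relative to DMSO and no-SOS1 blank, 4-parameter curve fit.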

KRAS G12V/RAF1 = biological target: T2, KRAS G12V/RAF1 (Homo sapiens, UniProt P01116, G12V); assay: Protein-protein interaction (PPI) HTRF assay KRAS G12V/RAF1; format: binding; settings: KRASG12V/RAF1
T2 construct: KRAS (1-169) proteins were expressed in E. coli at 18° C; His6-MBP (N, cleaved yes); made in house; host or cells: E. coli
T2 sequence (P01116 1-169 isoform P01116-2 G12V): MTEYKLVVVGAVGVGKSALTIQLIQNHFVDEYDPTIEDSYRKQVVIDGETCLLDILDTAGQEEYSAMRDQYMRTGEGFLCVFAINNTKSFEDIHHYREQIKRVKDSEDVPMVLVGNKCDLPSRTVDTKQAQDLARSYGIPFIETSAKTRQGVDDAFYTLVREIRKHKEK
Method: (§1) Biotinylated KRAS wt and KRAS G12DNV proteins were expressed and purified in conditions similar to those previously reported (Tran, et al., 2021) (Zhang, et al., 2020). Briefly, KRAS (1-169) proteins were expressed in E. coli at 18° C. with an upstream TEV cleavage site (ENLFYQS) followed an Avi tag sequence ([…]). KIRAS expression constructs contained both a His6 and maltose-binding protein (MBP) tags at the N-terminus for Ni-NTA column purification prior to overnight TEV cleavage and MBP column purification. The avi-tagged NRAS expression construct contained both a His6 tag and SUMO cleavage sige at the N-terminus for Ni-NTA column purification followed by His-ULP1 digestion overnight. All avi-tagged RAS proteins were dialyzed into buffer containing ATP, biotin, and BirA followed by purification over a second Ni-NTA column and then run over a size exclusion HiLoad™ 26/600 Superdex™ column in 20 mM HEPES, pH 7.5, 300 mM NaCl, 5 mM MgCl2, and 1 mM TCEP. Fractions containing the protein of interest were pooled, concentrated, and confirmed by intact mass spectrometry. To prepare ‘GTP’ loaded KRAS and NRAS, biotinylated KRAS or NRAS was nucleotide exchanged from GDP-bound protein to GppNHp-bound (Jena Biosciences, NU-401-50) protein in the presence of alkaline phosphatase and excess GppNHp as previously described and the resulting nucleotide content was confirmed by HPLC reverse phase analytical chromatography (Donohue, et al., 2019) (Tran, et al., 2021).
(§2) His-tagged RAF1 (52-131) was similarly expressed in E. coli at 18° C. overnight with an upstream TEV cleavage site. His-tagged RAF1 expression construct contained both a His6 and MBP tags at the N-terminus for Ni-NTA column purification followed by MBP-tagged TEV digestion overnight. RAF1 protein samples were further purified over a MBP column followed by a Ni-NTA column and a second MBP column. The fractions containing the protein of interest were pooled, concentrated, and further purified over a HiLoad™ 16/600 Superdex™ 75 pg size exclusion column into 20 mM HEPES, pH8.0, 200 mM NaCl, 5 mM TCEP.
(§3) When RAS proteins are in the active GTP-bound conformation, they bind the effector protein RAF1 at the N-terminus Ras-binding domain (RBD, residues 52-131) (Tran, et al., 2021). Homogenous time resolved fluorescence (HTRF) was used to monitor the interaction between wt or mutant KRAS and RAF1 or wt NRAS and RAFT. Compounds were assayed in the presence of KRAS G12D/V and RAF1 versus wt KRAS to assess activity against mutant and w.t. KRAS. Similarly, compounds were then assayed in the presence of w.t. NRAS and RAF1 to assess RAS isoform selectivity. In all assay formats, His-tagged RAF1 protein was incubated with the HTRF donor, anti-6His Tb Cryptate gold (Cisbio 61DB10RDF), and biotinylated RAS proteins were incubated with the HTRF acceptor, streptavidin-d2 (CisBio 610SADLA). The intensity of the fluorescence signal emitted is proportional to binding between the two proteins. The donor solution was prepared by mixing 16 nM His-tagged RAF1 in protein dilution buffer with 1:100 anti-6His Tb cryptate in PPI-Terbium detection buffer. 16 nM biotinylated RAS protein was diluted into protein dilution buffer (50 mM Tris-HCl pH 7.5, 150 mM NaCl, 0.1 mM MgCl2, 1 mM TCEP, 0.005% Tween20) and mixed with 1:2000 Streptavidin-d2 diluted in PPI-Terbium detection buffer (CisBio 61DB10RDF). 50× compound in DMSO was mixed with 16 nM KRAS-acceptor solution and incubated for 30 minutes at room temperature. After compound pre-incubation with KRAS, the RAF1 donor solution was added to the KRAS-acceptor solution and incubated for 1 hour at room temperature. The fluorescence signal emitted was monitored at 665 nm and 615 nm using an Envision multimode plate reader. The HTRF ratio (665/615) was calculated and normalized to 0% inhibition in the absence of compound and 100% inhibition in the presence of untagged RAF1 protein. […]

wtNRAS/RAF1 = biological target: T3, wtNRAS/RAF1 (Homo sapiens, UniProt P01111); assay: Protein-protein interaction (PPI) HTRF assay w.t.NRAS/RAF1; format: binding
T3 construct: (1-169); His6-SUMO (N, cleaved yes); made in house; host or cells: E. coli (printed for the KRAS and RAF1 constructs; not explicitly for NRAS)
T3 sequence (P01111 1-169): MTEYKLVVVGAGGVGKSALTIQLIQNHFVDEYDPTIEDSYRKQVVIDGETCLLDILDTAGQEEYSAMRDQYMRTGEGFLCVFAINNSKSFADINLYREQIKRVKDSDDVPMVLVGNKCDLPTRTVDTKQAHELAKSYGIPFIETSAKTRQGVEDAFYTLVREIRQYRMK
Method: as §1, §2, §3

wtKRAS/RAF1 = biological target: T4, wtKRAS/RAF1 (Homo sapiens, UniProt P01116); assay: Protein-protein interaction (PPI) HTRF assay w.t.KRAS/RAF1; format: binding
T4 construct: KRAS (1-169) proteins were expressed in E. coli at 18° C; His6-MBP (N, cleaved yes); made in house; host or cells: E. coli
T4 sequence (P01116 1-169 isoform P01116-2): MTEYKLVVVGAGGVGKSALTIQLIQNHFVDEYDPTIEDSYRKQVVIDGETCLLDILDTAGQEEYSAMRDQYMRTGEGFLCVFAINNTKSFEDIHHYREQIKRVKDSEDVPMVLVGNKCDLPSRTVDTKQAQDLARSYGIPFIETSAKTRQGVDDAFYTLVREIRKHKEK
Method: as §1, §2, §3

KRAS G12D/RAF1 = biological target: T5, KRAS G12D/RAF1 (Homo sapiens, UniProt P01116, G12D); assay: Protein-protein interaction (PPI) HTRF assay KRAS G12D/RAF1; format: binding; settings: KRAS G12D/RAF1, GppNHp-loaded KRAS; 30 minutes pre-incubation
T5 construct: KRAS (1-169) proteins were expressed in E. coli at 18° C; His6-MBP (N, cleaved yes); made in house; host or cells: E. coli
T5 sequence (P01116 1-169 isoform P01116-2 G12D): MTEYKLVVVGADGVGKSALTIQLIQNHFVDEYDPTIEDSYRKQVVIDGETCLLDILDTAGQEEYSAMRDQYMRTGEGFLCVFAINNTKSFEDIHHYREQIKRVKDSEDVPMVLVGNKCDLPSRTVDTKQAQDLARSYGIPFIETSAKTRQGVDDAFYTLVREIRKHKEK
How it was run: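 IC50 values come from the 665/615 HTRF ratio, scaled between no-compound (0% inhibition) and untagged RAF1 (100%). GppNHp-exchanged, biotinylated RAS (1-169) solution at 16 nM met compound for 30 min at room temperature. Then 16 nM His-tagged RAF1 (52-131) donor solution was added and incubated 1 h.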

[2] = test system: AGS (KRAS G12D) cells, phospho-ERK; assay: pERK In Cell Western (ICW) assay (Method B); format: cell-based; settings: Homo sapiens, 3 hours
Method: pERK ICW is a high throughput screening assay to evaluate the cellular potency of mutant KRAS small molecule inhibitors. KRAS mutant cell line AGS (KRAS^G12D) were purchased from ATCC and maintained in DMEM and RPMI medium supplemented with 10% fetal bovine serum and Penicillin/Streptomycin.
Cells grown in exponential phase were trypsinized, resuspended in fresh media, and viable cells were counted using a cell counter with Trypan Blue (BioRad TC20). Cells were seeded into 384-well plate (Greiner 781091) at density of 5,000 cells/well for AGS and allowed to grow overnight in a 37° C. CO2 incubator. The next day, compounds were dispensed into wells with a ½ log, 10-point serial dilution and top concentration of 10 μM using Tecan D300e dispenser and incubated for 3 hours in a 37° C. CO2 incubator. Cells were then fixed with paraformaldehyde (Electron Microscopy Sciences, 15710, 4% final concentration) for 30 min, permeabilized with wash buffer (1×PBS+0.1% Triton X-100) for 30 min and blocked with Odyssey blocking buffer (Li—COR 927-70001) for 1 hour, all at room temperature (RT). Phospho-ERK antibody (CST 4370L) was diluted 1:500 in Odyssey blocking+0.2% Tween 20 and incubated with cells overnight at 4° C. The next day, plates were washed 5× with wash buffer, incubated with IRDye 800 CW, Goat anti-Rabbit secondary antibody (Li—COR 926-32211, 1:500) and DRAQ5 (CST 4084L, 1:5,000) diluted in Odyssey blocking+0.2% Tween 20 for 1 hour, washed 5×, and imaged on an Odyssey CLx imaging system.
For data analysis, signal intensities from 800 (phosphor-ERK) and 700 (DRAQ5) channels were extracted, and phospho-ERK signals were normalized to DRAQ5 signals for each well and percent of DMSO control values were computed. Data were then imported into Graphpad Prism to compute half-maximal inhibitory concentrations (IC50) using a 4-parameter variable slope model. Z-factor for each plate was computed from signals derived from wells treated with either DMSO or 5 μM of Trametinib. AGS pERK ICW (Method B) IC50 (uM) values of selected compounds are depicted in Table 2 with compounds having a value 0.001 uM to 0.01 uM as ++++; >0.01 uM to 0.1 uM as +++; >0.1 uM to 1 uM as ++; 1 uM to 10 uM as + and >10 uM as NA.

For `C[C@@]1(O)CCCN(c2nc(OC[C@@]34CCCN3C[C@H](F)C4)nc3c2COC2(CCc4c(Cl)cccc42)C3)C1` (stereo partly drawn) [Compound 23, (3R)-1-(4-chloro-2′-(((2R,7aS)-2-fluorotetrahydro-1H-pyrrolizin-7a(5H)-yl)methoxy)-2,3,5′,8′-tetrahydrospiro[indene-1,7′-pyrano[4,3-d]pyrimidin]-4′-yl)-3-methylpiperidin-3-ol], the IC50 [1] was 1 to 20 µM, the IC50 (KRAS G12V/RAF1) was 10 to 100 µM and the IC50 (wtNRAS/RAF1) was greater than 100 µM. It also gave an IC50 (wtKRAS/RAF1) greater than 100 µM and an IC50 (KRAS G12D/RAF1) of 10 to 100 µM.

For `O=C1NC(=O)C2(CCCN(c3nc(OC[C@@]45CCCN4C[C@H](F)C5)nc4c3COC3(CCc5c(Cl)cccc53)C4)C2)N1` (stereo partly drawn) [Compound 24, 9-[4′-chloro-2-[[(2R,8S)-2-fluoro-1,2,3,5,6,7-hexahydropyrrolizin-8-yl]methoxy]spiro[5,8-dihydropyrano[4,3-d]pyrimidine-7,1′-indane]-4-yl]-1,3,9-triazaspiro[4.5]decane-2,4-dione], the IC50 [1] was 0.1 to 1 µM, the IC50 (KRAS G12V/RAF1) was 10 to 100 µM and the IC50 (wtNRAS/RAF1) was greater than 100 µM. For the same compound, the IC50 (wtKRAS/RAF1) was 10 to 100 µM and the IC50 (KRAS G12D/RAF1) was 10 to 100 µM.

In the case of `CN1Cc2c(nc(OC[C@@]34CCCN3C[C@H](F)C4)nc2N2CCC[C@]3(C2)NC(=O)NC3=O)C[C@]12CCc1c(F)cccc12` [Compound 68, (5R)-9-[(7S)-4′-fluoro-2-[[(2R,8S)-2-fluoro-1,2,3,5,6,7-hexahydropyrrolizin-8-yl]methoxy]-6-methyl-spiro[5,8-dihydropyrido[4,3-d]pyrimidine-7,1′-indane]-4-yl]-1,3,9-triazaspiro[4.5]decane-2,4-dione], the IC50 [1] is reported as 0.01 to 0.1 µM and the IC50 [2] is reported as greater than 10 µM.

Compound `CN1Cc2c(nc(OC[C@@]34CCCN3C[C@H](F)C4)nc2N2CCC[C@]3(C2)NC(=O)NC3=O)C[C@]12CCc1cccc(Cl)c12` [Compound 70, (5R)-9-[(7S)-7′-chloro-2-[[(2R,8S)-2-fluoro-1,2,3,5,6,7-hexahydropyrrolizin-8-yl]methoxy]-6-methyl-spiro[5,8-dihydropyrido[4,3-d]pyrimidine-7,1′-indane]-4-yl]-1,3,9-triazaspiro[4.5]decane-2,4-dione] has an IC50 [1] of 0.01 to 0.1 µM and an IC50 [2] of 1 to 10 µM.
